pEC50, pIC50: −log10 of the molar value. Each block holds one compound with its values, some of them ahead of it.
What was measured:
[1] = Inhibition of Hepatitic C virus NS3/4A protease by FRET assay; set-up: species or system Hepacivirus hominis; conditions: for pIC50: read-out: IC50
[2] = Selectivity index, ratio of CC50 for human Huh7.5 cells to EC50 for Hepatitis C virus infected in human HuH7.5 cells; format: toxicity, cell-based, Huh-7; conditions: read-out: Ratio CC50/EC50
[3] = test system: Hepatitis C virus; experiment: Antiviral activity against Hepatitis C virus infected in human Huh7.5 cells assessed as inhibition of viral replication after 96 hrs by quantitative RT-PCR analysis; format: functional, organism-based, Hepacivirus hominis; conditions: Huh-7, 96 h
[4] = Cytotoxicity against human Huh7.5 cells after 96 hrs by MTT assay; format: cell-based, Huh-7

Compound: Oc1cc(O)c2c(c1)O[C@H](c1ccc(O)c(O)c1)[C@@H](O)C2 [CIANIDANOL]
IC50 [1]: > 10 µg/mL

Compound: COc1cc(/C=C/CO[C@@H]2O[C@H](CO)[C@@H](O)[C@H](O)[C@H]2O)cc(OC)c1O
IC50 [1]: > 10 µg/mL

Compound: O=C(O[C@@H]1O[C@@H]2COC(=O)c3cc(O)c(O)c(O)c3-c3c(cc(O)c(O)c3O)C(=O)O[C@H]([C@H]1O)[C@@H]2O)c1cc(O)c(O)c(O)c1 [CORILAGIN]
pIC50 [1]: 5.46
selectivity ratio [2]: 7.1
pEC50 [3]: 4.87
CC50 at 96 h [4]: 96.7 µM

Compound: O=C(O)C[C@@H]1C(=O)O[C@H]2[C@@H]3OC(=O)c4cc(O)c(O)c(O)c4-c4c(cc(O)c(O)c4O)C(=O)OC[C@H]2O[C@@H](OC(=O)c2cc(O)c(O)c(O)c2)[C@@H]3OC(=O)c2cc(O)c(O)c3c2[C@H]1[C@H](O)C(=O)O3 [CHEBULAGIC ACID]
pIC50 [1]: 5.04
selectivity ratio [2]: 4.7
pEC50 [3]: 4.65
CC50 at 96 h [4]: 105 µM

Compound: COc1ccc(CO)cc1O[C@@H]1O[C@H](COC(=O)c2cc(O)c(O)c(O)c2)[C@@H](O)[C@H](O)[C@H]1O
IC50 [1]: > 10 µg/mL

Compound: COc1ccc2c(O[C@@H]3C[C@H]4C(=O)N[C@]5(C(=O)O)C[C@H]5/C=C\CCCCC[C@H](NC(=O)OC5CCCC5)C(=O)N4C3)cc(-c3csc(NC(C)C)n3)nc2c1 [CILUPREVIR]
pIC50 [1]: 5.81

Compound: COc1cc(O[C@@H]2O[C@H](CO[C@@H]3O[C@H](C)[C@@H](O)[C@H](O)[C@@H]3O)[C@@H](O)[C@H](O)[C@H]2O)ccc1O [CUNEATASIDES D]
IC50 [1]: > 10 µg/mL

Compound: COc1cc(CO[C@@H]2O[C@H](CO)[C@@H](O)[C@H](O)[C@H]2O)cc(OC)c1O
IC50 [1]: > 10 µg/mL

Compound: O=C(O[C@@H]1O[C@@H]2COC(=O)c3cc(O)c(O)c(O)c3-c3c(cc(O)c(O)c3O)C(=O)O[C@H]([C@H]1O)[C@@H]2OC(=O)c1cc(O)c(O)c(O)c1)c1cc(O)c(O)c(O)c1
IC50 [1]: > 10 µg/mL

Compound: O=C(O[C@@H]1O[C@@H]2COC(=O)c3cc(O)c(O)c(O)c3-c3c(cc(O)c(O)c3O)C(=O)O[C@@H]([C@@H]2O)[C@H]1OC(=O)c1cc(O)c(O)c(O)c1)c1cc(O)c(O)c(O)c1
IC50 [1]: > 10 µg/mL

Compound: Oc1cc(O)c2c(c1)O[C@H](c1cc(O)c(O)c(O)c1)[C@@H](O)C2 [GALLOCATECHIN]
IC50 [1]: > 10 µg/mL

Further lines, with some results ahead:

IC50 [1]: > 10 µg/mL
Compound: COC(=O)Cc1c(C(=O)O[C@H]2[C@H](OC(=O)c3cc(O)c(O)c(O)c3)O[C@@H]3COC(=O)c4cc(O)c(O)c(O)c4-c4c(cc(O)c(O)c4O)C(=O)O[C@H]2[C@@H]3O)cc(O)c(O)c1O [EXCOECARIPHENOL C]

IC50 [1]: > 10 µg/mL
Compound: C[C@@H]1O[C@@H](OC[C@H]2O[C@@H](OCc3ccccc3)[C@H](O)[C@@H](O)[C@@H]2O)[C@H](O)[C@H](O)[C@H]1O [HYDRANGEIFOLIN I]

IC50 [1]: > 10 µg/mL
Compound: O=c1oc2c(O)c(O[C@@H]3OC[C@@H](O)[C@H](O)[C@H]3O)cc3c(=O)oc4c(O)c(O)cc1c4c23 [ELLAGIC ACID 4-O-XYLOPYRANOSIDE]

IC50 [1]: > 10 µg/mL
Compound: O=c1c(O[C@@H]2O[C@H](CO)[C@@H](O)[C@H](O)[C@H]2O)c(-c2ccc(O)c(O)c2)oc2cc(O)cc(O)c12 [ISOQUERCETIN]

pIC50 [1]: 5.16
pEC50 [3]: 4.90
Compound: O=C(O[C@@H]1O[C@@H]2COC(=O)c3cc(O)c(O)c4oc5c(O)c(O)cc(c5c34)C(=O)O[C@@H]3[C@H]1OC(=O)c1cc(O)c(O)c4c1[C@@H]1[C@@]5(C[C@]6(O)OC[C@@H](O)[C@@H]6O[C@@H]5C(O)(O)C(O)(O)[C@]1(O)O4)C(=O)O[C@@H]32)c1cc(O)c(O)c(O)c1 [EXCOECARIPHENOL D]
selectivity ratio [2]: 4.5
CC50 at 96 h [4]: 56.2 µM

IC50 [1]: > 10 µg/mL
Compound: OC[C@H]1O[C@@H](Sc2c(O)cc(O)c3c2O[C@H](c2ccc(O)c(O)c2)[C@@H](O)C3)[C@H](O)[C@@H](O)[C@@H]1O [EXCOECARIPHENOL A]

IC50 [1]: > 10 µg/mL
Compound: COc1cc(O[C@@H]2O[C@H](CO)[C@@H](O)[C@H](O)[C@H]2O)cc(OC)c1O [KOABURASIDE]

IC50 [1]: > 10 µg/mL
Compound: OC[C@H]1O[C@@H](Sc2c(O)cc(O)c3c2O[C@H](c2cc(O)c(O)c(O)c2)[C@@H](O)C3)[C@H](O)[C@@H](O)[C@@H]1O [EXCOECARIPHENOL B]

pIC50 [1]: 5.05
pEC50 [3]: 4.48
Compound: O=C1O[C@H]2[C@@H]3OC(=O)c4cc(O)c(O)c(O)c4-c4c(cc(O)c(O)c4O)C(=O)OC[C@H]2O[C@@H](OC(=O)c2cc(O)c(O)c(O)c2)[C@@H]3OC(=O)c2cc(O)c(O)c3c2[C@@H]2C1=CC(=O)[C@](O)(O3)C2(O)O [GERANIIN]
selectivity ratio [2]: 1.9
CC50 at 96 h [4]: 63.4 µM

IC50 [1]: > 10 µg/mL
Compound: O=C1O[C@H]2[C@H](O)[C@@H](OC(=O)c3cc(O)c(O)c4c3[C@@H]3C1=CC(=O)C(O)(O)C3(O)O4)[C@H](OC(=O)c1cc(O)c(O)c(O)c1)O[C@@H]2CO (stereo partly drawn) [FUROSIN]

Source: ChEMBL document CHEMBL1938330, “Inhibitory effects of polyphenols toward HCV from the mangrove plant Excoecaria agallocha L” (Bioorg Med Chem Lett, 2012)
